From patent US9060997B2, “Antifolate compounds for the treatment of melanoma” (UNIVERSIDAD DE MURCIA, priority 2007, dated 2015)

Assays:
[1] = system: Caco-2 and SkMel-28 cells; test: Cellular uptake of ECG, TMECG and QM; format: in vitro ADME, human; details: 50 μM catechins
Method: Cellular uptake was determined by the difference between the initial concentration of catechin and the calculated at specific times in the cellular medium, and expressed as a percentage of catechin at zero time. The values presented are the mean percentage determined from five independent experiments±SD.
For cellular uptake experiments Caco-2 and SkMel-28 cells were grown until reaching 90% confluence. Then, 20 ml of cellular medium containing 50 μM catechins and 0.2 mM ascorbic acid was added and incubated for 60 h in a CO2 incubator. At specified times 1 ml-aliquots were taken and frozen in liquid N2 until the catechin concentrations were determined by HPLC. Catechins were identified by their characteristic elution times and their concentration calculated with respect to calibration curves of known concentrations of catechins.

[2] = system: Reduced folate carrier (RFC) mRNA; test: Real-time PCR of RFC expression in SkMel-28; format: cell-based, human; details: 50 μM, after 24 h of treatment
Method: Data were obtained by real time PCR and compared with the relative expression of RFC in normal human skin (zero relative gene expression). Zero time represents the level of RFC in untreated SkMel-28 cells.
PolyA+ mRNA from human adult skin was purchased from Invitrogen. SkMel-28 and HEM polyA+ mRNA was extracted from 5×10^6 cells using the Illustra Quick Prep Micro mRNA purification kit (GE Healthcare). mRNA (200 ng) was used to synthesize cDNA using SuperScript First-Strand Synthesis System (Invitrogen). PCR amplification of 2 μL of the cDNA strand generated was carried out in a total volume of 50 μL using an Eppendorf Mastercycler Thermal Cycler. Samples were amplified by 40 cycles at 95° C. (1 min), 62° C. (1 min) and 72° C. (1 min). The amplified PCR products were subjected to electrophoresis in 3% agarose gel and stained with ethidium bromide.
cDNA samples (1 μL) were used for real-time PCR in a total volume of 20 μL using SYBR Green Reagent (Applied Biosystems) and specific primers on a 7500 Real Time PCR System of Applied Biosystems. […] Amplification of target gene sequences were compared against serial dilutions of know quantities of their purified cDNA fragments, and normalized to the abundance of the house-keeping gene β-actin.

[3] = system: DHFR mRNA and protein; test: DHFR mRNA (real-time PCR) and protein in SkMel-28; format: cell-based, human; details: SkMel-28, 50 μM
Method: Data were obtained by real time PCR and compared with the relative expression of DHFR in HeM cells (zero relative gene expression). Zero time represents the level of DHFR in untreated SkMel-28 cells.
cDNA samples (1 μL) were used for real-time PCR in a total volume of 20 μL using SYBR Green Reagent (Applied Biosystems) and specific primers on a 7500 Real Time PCR System of Applied Biosystems. The PCR amplification cycles included denaturation 95° C., 15 min; to activate HotStar Taq DNA polymerase and to minimize primer-dimer contribution), and amplification [over 40-50 cycles including denaturation (94° C.; 30 s), annealing (55° C.; 30 s), and extension (72° C.; 1 min)]. All PCR reactions were performed in triplicate and from at least two independent experiments. Non-RT control and negative control samples (without template) were processed in the same manner. […] Amplification of target gene sequences were compared against serial dilutions of know quantities of their purified cDNA fragments, and normalized to the abundance of the house-keeping gene β-actin.
Protein lysates were prepared from specified cells, separated by SDS-polyacrylamide gel electrophoresis (PAGE), transferred to nitrocellulose membranes, and analyzed by immunoblotting. […] Bound antibodies were detected by chemiluminiscence (ECL Plus, GE Healthcare). […]

[4] = target: T1, human tyrosinase (Homo sapiens, UniProt P14679); test: Tyrosinase-catalyzed oxidation, steady-state kinetics; format: biochemical; parameters: Human tyrosinase was purified to homogeneity from SkMel-28 (1×10^8 cells) following the protocol designed by Yurkow and Laskin (1989); endogenous in cells; host or cells: SkMel-28; details: human tyrosinase from SkMel-28, pH 5.5, 25° C.; read-out: Michaelis-Menten constant (Km)
T1 sequence (P14679 19-529): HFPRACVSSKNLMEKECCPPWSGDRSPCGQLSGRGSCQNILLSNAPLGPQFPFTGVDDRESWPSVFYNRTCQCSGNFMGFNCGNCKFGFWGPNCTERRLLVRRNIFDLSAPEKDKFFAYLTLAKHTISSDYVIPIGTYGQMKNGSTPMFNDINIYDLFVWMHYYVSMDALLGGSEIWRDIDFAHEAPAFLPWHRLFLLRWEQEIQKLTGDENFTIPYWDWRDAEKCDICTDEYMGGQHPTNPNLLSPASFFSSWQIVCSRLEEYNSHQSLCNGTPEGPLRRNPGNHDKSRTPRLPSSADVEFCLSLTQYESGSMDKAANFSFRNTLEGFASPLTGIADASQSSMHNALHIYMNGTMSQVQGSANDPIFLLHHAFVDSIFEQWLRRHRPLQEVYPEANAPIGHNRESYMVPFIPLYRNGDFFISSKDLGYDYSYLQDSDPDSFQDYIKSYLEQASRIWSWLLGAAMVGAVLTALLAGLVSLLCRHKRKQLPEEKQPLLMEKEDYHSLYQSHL
Method: The arrow represents the absorbance direction and the time between recordings was 1 min. […] Data was fitted to the Michaelis-Menten equation using non-lineal regression analysis.
Human tyrosinase was purified to homogeneity from SkMel-28 (1×10^8 cells) following the protocol designed by Yurkow and Laskin (1989). TMECG oxidation catalyzed by human tyrosinase was followed using a Perkin-Elmer Lambda-35 spectrophotometer. Steady-state kinetic constants were obtained by measuring the initial rates of TMECG oxidation at 412 nm in 30 mM sodium acetate buffer, pH 5.5 and 25° C.

Q: For `COc1cc(C(=O)O[C@@H]2Cc3c(O)cc(O)cc3O[C@@H]2c2ccc(O)c(O)c2)cc(OC)c1OC` [TMECG, 3-O-(3,4,5-trimethoxybenzoyl)-(−)-epicatechin], which “cellular uptake / membrane transport” value [1] is on record?
A: greater than the uptake of its related natural catechin, ECG

Q: What about the “reduction in RFC expression” value [2] of the same molecule?
A: more than 80%

Q: What about the “DHFR mRNA and protein level” value [3] of the same molecule?
A: reduced DHFR mRNA and protein to normal levels

Q: What about the Km [4] of the same molecule?
A: 120 ± 20 µM
